Test results from PubChem BioAssay AID1963968 (Molecular Pharmacology Branch, DTP, NCI, 2024).
Where “and” joins values, the source holds several entries; their conditions need not be identical. Equal values may be shown once.

System: 945468-187-T-J3-PDC spheroids with HUVEC/MSC, viability
Test: Anticancer human tumor 945468-187-T-J3-PDC patient-derived rectal carcinoma cell line growth inhibition [PI3K]
Conditions: for viability, T/C: stronger effect = lower value
Description: Combinatorial screen of targeted agents with the PI3K inhibitors inavolisib, alpelisib, duvelisib, and copanlisib in multi-cell type tumor spheroids
A high-throughput screen of multi-cell type tumor spheroids was designed to identify active combinations of targeted small molecules and PI3K pathway inhibitors. Complex spheroids include a stromal component modeled by human endothelial cells (HUVEC) and fibroblasts modeled by human mesenchymal stem cells (MSCs). The concentration ranges selected for each drug and investigational agent were based upon clinically achievable concentrations if the clinical Cmax of the agent was known.
Compounds. The drugs and investigational agents: inavolisib (NSC800729), alpelisib (NSC765974), duvelisib (NSC772469), copanlisib (NSC816437), ipatasertib (NSC767898), afuresertib (NSC778305), talazoparib (NSC767125), sapanisertib (NSC764658), selumetinib (NSC741078), tovorafenib (DAY101, NSC766906), vemurafenib (NSC761431), ravoxertinib (NSC781343), sotorasib (NSC818433), MRTX1133 (NSC 836407), abemaciclib (NSC 768073), palbociclib (NSC758247), venetoclax (NSC 766270), SY5609 (NSC837396), enzalutamide (NSC755605), and darolutamide (NSC825331), were obtained from the National Cancer Institute (NCI) Developmental Therapeutics Program Chemical Repository. The FDA-approved anticancer drug set is available from the NCI Developmental Therapeutics Program. […] The stock solutions were prepared in dimethyl sulfoxide (DMSO, Sigma-Aldrich, St. Louis, MO, cat. D2650) at 800-fold the tested concentration and stored at -70 degrees C prior to their use. All drugs and investigational agents were tested over a range starting from a high concentration at or near the clinical Cmax and decreasing in half-log increments. If the clinical Cmax for an agent had not been determined, the highest concentration tested was 10 microM.
Cell Culture. All cells were maintained in an incubator at 37 degrees C and 5% CO2 with 95% humidity. The PDC lines were cultured according to standard operating procedures established by the NCI PDMR (https://pdmr.cancer.gov/sops/default.htm). All PDCs were thawed and cultured in Matrigel-coated flasks prepared with a working solution of 1X Ham's F-12 nutrient mix, without supplementation (Invitrogen, Waltham, MA, cat. 11765054), 100 U/mL penicillin-streptomycin (Invitrogen, cat. 15140122), and 2.5% Matrigel (Corning Inc., Corning, NY, cat. 354248) for the first three passages. The 354836-022-R-J1-PDC, 475296-252-R-J1-PDC, and 997726-040-R-J2-PDC lines were cultured in 6A media, which includes advanced DMEM/F-12 (Thermo Fisher Scientific, cat. 12634028), 10 mM HEPES (Thermo Fisher Scientific, cat. 15630080), 1X GlutaMAX supplement (Thermo Fisher Scientific, cat. 35050061), 0.1 mg/mL primocin (InvivoGen, San Diego, CA, cat. ant-pm-2), 10% defined fetal bovine serum, heat inactivated (HyClone Laboratories Inc., Logan, UT, cat. SH30070.03HI), 50% L-WRN conditioned media (ATCC, cat. CRL-3276), 1.25 mM N-Acetyl-L-cysteine (Sigma-Aldrich, cat. A9165), 10 mM nicotinamide (Sigma-Aldrich, cat. N0636), 1X B-27 supplement (Thermo Fisher Scientific, cat. 17504044), 1X N-2 supplement (Thermo Fisher Scientific, cat. 17502048), and 10 microM Y-27632 dihydrochloride (Tocris Bioscience, Bristol, United Kingdom, cat. 1254). The 624824-186-R-J2-PDC line was cultured in 6C/Colon 1B media, which includes all 6A media components plus 50 ng/mL human EGF recombinant protein (Thermo Fisher Scientific, cat. PHG0311). […]

[1] = curve of first compound, second compound 0.0316 µM
[2] = curve of first compound, second compound 0.1 µM
[3] = curve of first compound, second compound 0.316 µM
[4] = curve of first compound, second compound 1 µM
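Note: spheroids exposed to agents for 7 days before viability read.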
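Throughout, for viability, T/C: 100% = DMSO vehicle control viability.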

Q: With `C=CC(=O)N1CCN(c2nc(=O)n(-c3c(C)ccnc3C(C)C)c3nc(-c4c(O)cccc4F)c(F)cc23)C(C)C1` (stereo unspecified) + Cc1nc(NC(=O)N2CCCC2C(N)=O)sc1-c1ccnc(C(C)(C)C(F)(F)F)c1 as the compound, how does the IC50 [1] read?
A: > 10 µM

Q: And the IC50 [2]?
A: > 10 µM

Q: What about the IC50 [3] of the same compound?
A: > 10 µM

Q: And the IC50 [4]?
A: > 10 µM

Q: And the IC50 (curve of first compound, second compound 3.16 µM)?
A: > 10 µM

Q: What about the IC50 (curve of first compound, second compound 10 µM) of the same compound?
A: > 10 µM

Q: What about the viability, T/C (second compound 0.0316 µM, first compound 0.0316 µM) of the same compound?
A: 106%

Q: What about the viability, T/C (second compound 0.0316 µM, first compound 0.1 µM) of the same compound?
A: 108%

Q: What about the viability, T/C (second compound 0.0316 µM, first compound 0.316 µM) of the same compound?
A: 102%

Q: And the viability, T/C (second compound 0.0316 µM, first compound 1 µM)?
A: 108%

Q: What about the viability, T/C (second compound 0.0316 µM, first compound 3.16 µM) of the same compound?
A: 110%

Q: What about the viability, T/C (second compound 0.0316 µM, first compound 10 µM) of the same compound?
A: 114%

Q: What about the viability, T/C (second compound 0.1 µM, first compound 0.0316 µM) of the same compound?
A: 108%

Q: And the viability, T/C (second compound 0.1 µM, first compound 0.1 µM)?
A: 99.8%

Q: And the viability, T/C (second compound 0.1 µM, first compound 0.316 µM)?
A: 103%

Q: And the viability, T/C (second compound 0.1 µM, first compound 1 µM)?
A: 109%

Q: What about the viability, T/C (second compound 0.1 µM, first compound 3.16 µM) of the same compound?
A: 114%

Q: And the viability, T/C (second compound 0.1 µM, first compound 10 µM)?
A: 99%

Q: And the viability, T/C (second compound 0.316 µM, first compound 0.0316 µM)?
A: 103%

Q: What about the viability, T/C (second compound 0.316 µM, first compound 0.1 µM) of the same compound?
A: 102%

Q: What about the viability, T/C (second compound 0.316 µM, first compound 0.316 µM) of the same compound?
A: 100%

Q: And the viability, T/C (second compound 0.316 µM, first compound 1 µM)?
A: 115%

Q: And the viability, T/C (second compound 0.316 µM, first compound 3.16 µM)?
A: 105%

Q: And the viability, T/C (second compound 0.316 µM, first compound 10 µM)?
A: 98.6%

Q: And the viability, T/C (second compound 1 µM, first compound 0.0316 µM)?
A: 126%

Q: And the viability, T/C (second compound 1 µM, first compound 0.1 µM)?
A: 118%

Q: What about the viability, T/C (second compound 1 µM, first compound 0.316 µM) of the same compound?
A: 102%

Q: And the viability, T/C (second compound 1 µM, first compound 1 µM)?
A: 123%

Q: What about the viability, T/C (second compound 1 µM, first compound 3.16 µM) of the same compound?
A: 122%

Q: What about the viability, T/C (second compound 1 µM, first compound 10 µM) of the same compound?
A: 107%

Q: And the viability, T/C (second compound 3.16 µM, first compound 0.0316 µM)?
A: 110%

Q: What about the viability, T/C (second compound 3.16 µM, first compound 0.1 µM) of the same compound?
A: 109%

Q: What about the viability, T/C (second compound 3.16 µM, first compound 0.316 µM) of the same compound?
A: 112%

Q: And the viability, T/C (second compound 3.16 µM, first compound 1 µM)?
A: 108%

Q: What about the viability, T/C (second compound 3.16 µM, first compound 3.16 µM) of the same compound?
A: 113%

Q: And the viability, T/C (second compound 3.16 µM, first compound 10 µM)?
A: 115%

Q: And the viability, T/C (second compound 10 µM, first compound 0.0316 µM)?
A: 71.1%

Q: What about the viability, T/C (second compound 10 µM, first compound 0.1 µM) of the same compound?
A: 64.5%

Q: And the viability, T/C (second compound 10 µM, first compound 0.316 µM)?
A: 58.3%

Q: And the viability, T/C (second compound 10 µM, first compound 1 µM)?
A: 67.5%

Q: What about the viability, T/C (second compound 10 µM, first compound 3.16 µM) of the same compound?
A: 90.8%

Q: And the viability, T/C (second compound 10 µM, first compound 10 µM)?
A: 79.1%

Q: What does the source list for `CC(=O)c1c(C)c2cnc(Nc3ccc(N4CCNCC4)cn3)nc2n(C2CCCC2)c1=O`?
A: viability, T/C (compound 0.000316 µM): 101% [middle of 4 runs]; viability, T/C (compound 0.001 µM): 100% [middle of 4 runs]; viability, T/C (compound 0.00316 µM): 83.2% and 102% (2×) and 91.3%; viability, T/C (compound 0.01 µM): 93.4% [middle of 4 runs]; viability, T/C (compound 0.0316 µM): 113% [middle of 4 runs]; viability, T/C (compound 0.1 µM): 103% (2×) and 106% and 99.3%; IC50 (curve of compound): > 0.1 µM

Q: Which IC50 (curve of first compound, second compound 0.00316 µM) does the source give for `Cn1cnc2c(F)c(Nc3ccc(Br)cc3Cl)c(C(=O)NOCCO)cc21` + CC(Nc1ccc2c(c1)OCCn1cc(N3C(=O)OCC3C(F)F)nc1-2)C(N)=O here?
A: > 3 µM

Q: And the IC50 (curve of first compound, second compound 0.01 µM)?
A: > 3 µM

Q: And the IC50 [1]?
A: > 3 µM

Q: What about the IC50 [2] of the same compound?
A: 0.834 µM

Q: And the IC50 [3]?
A: 0.118 µM

Q: And the IC50 [4]?
A: 0.032 µM

Q: And the viability, T/C (second compound 0.00316 µM, first compound 0.00949 µM)?
A: 105%

Q: And the viability, T/C (second compound 0.00316 µM, first compound 0.03 µM)?
A: 100%

Q: And the viability, T/C (second compound 0.00316 µM, first compound 0.0949 µM)?
A: 117%

Q: What about the viability, T/C (second compound 0.00316 µM, first compound 0.3 µM) of the same compound?
A: 116%

Q: What about the viability, T/C (second compound 0.00316 µM, first compound 0.949 µM) of the same compound?
A: 114%

Q: What about the viability, T/C (second compound 0.00316 µM, first compound 3 µM) of the same compound?
A: 95.3%

Q: What about the viability, T/C (second compound 0.01 µM, first compound 0.00949 µM) of the same compound?
A: 103%

Q: What about the viability, T/C (second compound 0.01 µM, first compound 0.03 µM) of the same compound?
A: 105%

Q: What about the viability, T/C (second compound 0.01 µM, first compound 0.0949 µM) of the same compound?
A: 114%

Q: What about the viability, T/C (second compound 0.01 µM, first compound 0.3 µM) of the same compound?
A: 111%

Q: What about the viability, T/C (second compound 0.01 µM, first compound 0.949 µM) of the same compound?
A: 126%

Q: And the viability, T/C (second compound 0.01 µM, first compound 3 µM)?
A: 91.2%

Q: And the viability, T/C (second compound 0.0316 µM, first compound 0.00949 µM)?
A: 107%

Q: What about the viability, T/C (second compound 0.0316 µM, first compound 0.03 µM) of the same compound?
A: 119%

Q: And the viability, T/C (second compound 0.0316 µM, first compound 0.0949 µM)?
A: 120%

Q: What about the viability, T/C (second compound 0.0316 µM, first compound 0.3 µM) of the same compound?
A: 100%

Q: And the viability, T/C (second compound 0.0316 µM, first compound 0.949 µM)?
A: 97.1%

Q: What about the viability, T/C (second compound 0.0316 µM, first compound 3 µM) of the same compound?
A: 62.7%

Q: What about the viability, T/C (second compound 0.1 µM, first compound 0.00949 µM) of the same compound?
A: 114%

Q: And the viability, T/C (second compound 0.1 µM, first compound 0.03 µM)?
A: 116%

Q: What about the viability, T/C (second compound 0.1 µM, first compound 0.0949 µM) of the same compound?
A: 104%

Q: What about the viability, T/C (second compound 0.1 µM, first compound 0.3 µM) of the same compound?
A: 73.3%

Q: And the viability, T/C (second compound 0.1 µM, first compound 0.949 µM)?
A: 49.5%

Q: What about the viability, T/C (second compound 0.1 µM, first compound 3 µM) of the same compound?
A: 33%

Q: What about the viability, T/C (second compound 0.316 µM, first compound 0.00949 µM) of the same compound?
A: 85.2%

Q: What about the viability, T/C (second compound 0.316 µM, first compound 0.03 µM) of the same compound?
A: 73.1%

Q: And the viability, T/C (second compound 0.316 µM, first compound 0.0949 µM)?
A: 52.7%

Q: And the viability, T/C (second compound 0.316 µM, first compound 0.3 µM)?
A: 35.4%

Q: And the viability, T/C (second compound 0.316 µM, first compound 0.949 µM)?
A: 26%

Q: What about the viability, T/C (second compound 0.316 µM, first compound 3 µM) of the same compound?
A: 19.2%

Q: What about the viability, T/C (second compound 1 µM, first compound 0.00949 µM) of the same compound?
A: 60.4%

Q: And the viability, T/C (second compound 1 µM, first compound 0.03 µM)?
A: 50.7%

Q: What about the viability, T/C (second compound 1 µM, first compound 0.0949 µM) of the same compound?
A: 36.9%

Q: What about the viability, T/C (second compound 1 µM, first compound 0.3 µM) of the same compound?
A: 23.3%

Q: And the viability, T/C (second compound 1 µM, first compound 0.949 µM)?
A: 15.9%

Q: What about the viability, T/C (second compound 1 µM, first compound 3 µM) of the same compound?
A: 11.7%
